From patent US20200284781A1, “TEST METHOD OF COMBINED TOXICITY FOR CH[…] BUTACHLOR” (priority 2019, published 2020)
≈ marks a conversion by molar mass, not a printed value.

Experiments:
[1] = Single toxicity of chlorpyrifos and butachlor to zebrafish embryos; assay type: in vivo; conditions: in vivo, other: immersion in test solution (waterborne exposure), read-out: LC50 (95% CI); for LC50 at 24 h: exposure time 24 h; for LC50 at 48 h: exposure time 48 h; for LC50 at 72 h: exposure time 72 h; for LC50 at 96 h: exposure time 96 h
Experimental: (§1) D. Toxicity of pesticides to zebrafish embryos: On the basis of clearing the effective concentration range of pesticides in pre-tests, diluting the pesticide stock solution with standard dilution water to 5-7 concentrations with a geometrical ratio, and using a 24 well cell culture dish for exposure apparatus, the volume of each well is 3 mL, 20 wells are the same experimental concentration, and the remaining 4 wells are blank controls; during the experiment, of test solution and 1 randomly selected 3 hpf (hourpost-fertilization) normal fertilized embryo at the embryo shield stage were put into every well, set up 3 replicates at each concentration, every culture dish as a replicate, and incubating in a multifunctional incubator at 26±1° C. with a photoperiod of 14 h (light): 10 h (dark);
(§2) Preferably, in the step D, the test solution needs to be replaced every 24 h, observing and microscopical observing the CK group and the exposed group every 24 h, recording the number of embryos with normal development and malformations, and calculating the number of embryos hatched and larvae malformations, the experiment lasts 96 hours.
as §1, with “24-well” for “24 well”, “poisoning” for “exposure”, “experiment, 2 mL” for “experiment,”, “C. V:” for “C.”
(§3) H. Data processing: Calculating the LC50 value of pesticides on larvae and their 95% confidence limits by probit analysis based on the number and time of dead fish larvae, and using 95% confidence limit of LC50 as the criterion to determine whether the toxicity difference of different drugs is significant, LC50≤0.1 mg a.i. L^−1, is hypertoxic; 0.1<LC50≤1.0 mg a.i. L^−1, is high toxicity; 1.0<LC50≤10.0 mg a.i. L^−1, is medium toxicity; LC50>10.0 mg a.i. L^−1, is low toxicity, the maximum allowable concentration of MPC employs 100 as the protection factor, the formula is: MPC=96 h-LC50/100, to get the maximum allowable concentration of a poison.
as §2, with “Wherein” for “Preferably,”, “hours, for structural analysis.” for “hours.”

[2] = system: zebrafish embryos; test: as above; assay type: in vivo
Experimental: as §1, §2
as §1, with “24-well” for “24 well”, “poisoning” for “exposure”, “experiment, 2 mL” for “experiment,”, “C. V:” for “C.”
as §3
as §2, with “Wherein” for “Preferably,”, “hours, for structural analysis.” for “hours.”

[3] = Single toxicity of chlorpyrifos and butachlor to zebrafish larvae; conditions: in vivo, other: immersion in test solution (waterborne exposure), read-out: LC50 (95% CI); for LC50 at 24 h: exposure time 24 h; for LC50 at 48 h: exposure time 48 h; for LC50 at 72 h: exposure time 72 h; for LC50 at 96 h: exposure time 96 h
Experimental: (§4) H. Data processing: Calculating the LC50 value of pesticides on larvae and their 95% confidence limits by probit analysis based on the number and time of dead fish larvae, and using 95% confidence limit of LC50 as the criterion to determine whether the toxicity difference of different pesticides is significant, LC50≤0.1 mg a.i. L^−1, is hypertoxic; 0.1<LC50≤1.0 mg a.i. L^−1, is high toxicity; 1.0<LC50≤[…] a.i. L^−1, is medium toxicity; LC50>10.0 mg a.i. L^−1 is low toxicity. The maximum allowable concentration of MPC employs 100 as the protection factor, the formula is: MPC=96 h-LC50/100, to get the maximum allowable concentration of a poison.
as §3
(§5) Wherein the larvae in the migratory period in step E refer to fish 120 h after fertilization of eggs, for improving the accuracy of the test.

[4] = Single toxicity of chlorpyrifos and butachlor to Japanese medaka larvae; conditions: in vivo, other: immersion in test solution (waterborne exposure), read-out: LC50 (95% CI); for LC50 at 24 h: exposure time 24 h; for LC50 at 48 h: exposure time 48 h; for LC50 at 72 h: exposure time 72 h; for LC50 at 96 h: exposure time 96 h
Experimental: as §4, §3, §5

[5] = Combined toxicity of chlorpyrifos and butachlor to zebrafish larvae; conditions: in vivo, read-out: LC50 (95% CI) of the component in the mixture
Experimental: (§6) F. Combined toxicity test: The toxicity test is performed on zebrafish larvae and Japanese medaka larvae, the test procedure is as follows:
a. Zebrafish larvae: The LC50 value of zebrafish larvae with a single pesticide for 96 h is a toxic unit, and 5-7 different concentrations with a geometrical ratio, test method and calculation of LC50 value of each exposure time are the same as 1.4.2;
as §3

[6] = Combined toxicity of chlorpyrifos and butachlor to Japanese medaka larvae; conditions: in vivo
Experimental: as §6
(§7) b. Japanese medaka: A single pesticide is used to measure the LC50 value of Japanese medaka for 96 hours, mixing chlorpyrifos and butachlor to form binary mixed systems with different ratios of 1:4, 2:3, 1:1, 3:2 and 4:1, according to the pre-experiment results, 5-7 different concentrations are set at equal logarithmic intervals to determine the combined toxicity of the mixed system to Japanese medaka, the method is the same as the determination of single toxicity, the total concentration of the binary mixture is the sum of the concentrations of the two components;
as §7, with “different concentrations with a geometrical ratio are set” for “different concentrations are set”, “to Japanese medaka the method” for “to Japanese medaka, the method”, “as the determination, of single” for “as the determination of single”
as §3

[7] = Japanese medaka larvae, chlorpyrifos:butachlor ratio 4:1, 24 h, read-out: LC50 (95% CI) of the component in the mixture
[8] = Japanese medaka larvae, chlorpyrifos:butachlor ratio 4:1, 96 h, read-out: LC50 (95% CI) of the component in the mixture
[9] = other: immersion in test solution (waterborne exposure), Japanese medaka larvae, chlorpyrifos:butachlor ratio 1:1, 24 h, read-out: LC50 (95%) CI of the component in the mixture
[10] = other: immersion in test solution (waterborne exposure), Japanese medaka larvae, chlorpyrifos:butachlor ratio 1:1, 48 h, read-out: LC50 (95%) CI of the component in the mixture
[11] = other: immersion in test solution (waterborne exposure), Japanese medaka larvae, chlorpyrifos:butachlor ratio 1:1, 72 h, read-out: LC50 (95%) CI of the component in the mixture
[12] = other: immersion in test solution (waterborne exposure), Japanese medaka larvae, chlorpyrifos:butachlor ratio 1:1, 96 h, read-out: LC50 (95%) CI of the component in the mixture
[13] = other: immersion in test solution (waterborne exposure), Japanese medaka larvae, chlorpyrifos:butachlor ratio 4:1, 48 h, read-out: LC50 (95% CI) of the component in the mixture
[14] = other: immersion in test solution (waterborne exposure), Japanese medaka larvae, chlorpyrifos:butachlor ratio 4:1, 72 h, read-out: LC50 (95% CI) of the component in the mixture
[15] = other: immersion in test solution (waterborne exposure), chlorpyrifos:butachlor ratio 1:4, 24 h, read-out: LC50 (95% CI) of the component in the mixture
[16] = other: immersion in test solution (waterborne exposure), chlorpyrifos:butachlor ratio 1:4, 48 h, read-out: LC50 (95% CI) of the component in the mixture
[17] = other: immersion in test solution (waterborne exposure), chlorpyrifos:butachlor ratio 1:4, 72 h, read-out: LC50 (95% CI) of the component in the mixture
[18] = other: immersion in test solution (waterborne exposure), chlorpyrifos:butachlor ratio 1:4, 96 h, read-out: LC50 (95% CI) of the component in the mixture
[19] = other: immersion in test solution (waterborne exposure), chlorpyrifos:butachlor ratio 2:3, 24 h, read-out: LC50 (95% CI) of the component in the mixture
[20] = other: immersion in test solution (waterborne exposure), chlorpyrifos:butachlor ratio 2:3, 48 h, read-out: LC50 (95% CI) of the component in the mixture
[21] = other: immersion in test solution (waterborne exposure), chlorpyrifos:butachlor ratio 2:3, 72 h, read-out: LC50 (95% CI) of the component in the mixture
[22] = other: immersion in test solution (waterborne exposure), chlorpyrifos:butachlor ratio 2:3, 96 h, read-out: LC50 (95% CI) of the component in the mixture
[23] = other: immersion in test solution (waterborne exposure), chlorpyrifos:butachlor ratio 3:2, 24 h, read-out: LC50 (95% CI) of the component in the mixture
[24] = other: immersion in test solution (waterborne exposure), chlorpyrifos:butachlor ratio 3:2, 48 h, read-out: LC50 (95% CI) of the component in the mixture
[25] = other: immersion in test solution (waterborne exposure), chlorpyrifos:butachlor ratio 3:2, 72 h, read-out: LC50 (95% CI) of the component in the mixture
[26] = other: immersion in test solution (waterborne exposure), chlorpyrifos:butachlor ratio 3:2, 96 h, read-out: LC50 (95% CI) of the component in the mixture

CCCCOCN(C(=O)CCl)c1c(CC)cccc1CC [Butachlor, butachlor]
LC50 at 24 h [1]: 32.8 µg/mL (≈ 105 µM)
LC50 at 48 h [1]: 5.82 µg/mL (≈ 18.7 µM)
LC50 at 72 h [1]: 4.42 µg/mL (≈ 14.2 µM)
LC50 at 96 h [1]: 1.93 µg/mL (≈ 6.19 µM)
effects of exposure on zebrafish embryo development [2]: egg coagulation, pericardial edema, yolk sac edema, and spinal curvature
times more toxic to zebrafish embryos than chlorpyrifos ([2]; 96 h): 6.75 times
LC50 at 24 h [3]: 0.67 µg/mL (≈ 2.15 µM)
LC50 at 48 h [3]: 0.59 µg/mL (≈ 1.89 µM)
LC50 at 72 h [3]: 0.51 µg/mL (≈ 1.64 µM)
LC50 at 96 h [3]: 0.44 µg/mL (≈ 1.41 µM)
LC50 at 24 h [4]: 0.85 µg/mL (≈ 2.73 µM)
LC50 at 48 h [4]: 0.72 µg/mL (≈ 2.31 µM)
LC50 at 72 h [4]: 0.54 µg/mL (≈ 1.73 µM)
LC50 at 96 h [4]: 0.43 µg/mL (≈ 1.38 µM)
LC50 at 24 h ([5]; equitoxic ratio): 0.91 µg/mL
LC50 at 48 h ([5]; equitoxic ratio): 0.72 µg/mL
LC50 at 72 h ([5]; equitoxic ratio): 0.45 µg/mL
LC50 at 96 h ([5]; equitoxic ratio): 0.26 µg/mL
LC50 at 24 h ([5]; equivalent concentration (1:1)): 0.18 µg/mL
LC50 at 48 h ([5]; equivalent concentration (1:1)): 0.16 µg/mL
LC50 at 72 h ([5]; equivalent concentration (1:1)): 0.14 µg/mL
LC50 at 96 h ([5]; equivalent concentration (1:1)): 0.11 µg/mL
LC50 at 24 h [6, 7]: 0.2 µg/mL
LC50 at 96 h [6, 8]: 0.036 µg/mL
LC50 at 24 h [6, 9]: 1.53 µg/mL
LC50 at 48 h [6, 10]: 1.22 µg/mL
LC50 at 72 h [6, 11]: 0.93 µg/mL
LC50 at 96 h [6, 12]: 0.81 µg/mL
LC50 at 48 h [6, 13]: 0.15 µg/mL
LC50 at 72 h [6, 14]: 0.11 µg/mL
LC50 at 24 h [6, 15]: 2.29 µg/mL
LC50 at 48 h [6, 16]: 1.3 µg/mL
LC50 at 72 h [6, 17]: 1.14 µg/mL
LC50 at 96 h [6, 18]: 0.88 µg/mL
LC50 at 24 h [6, 19]: 2.29 µg/mL
LC50 at 48 h [6, 20]: 0.66 µg/mL
LC50 at 72 h [6, 21]: 0.43 µg/mL
LC50 at 96 h [6, 22]: 0.35 µg/mL
LC50 at 24 h [6, 23]: 1.48 µg/mL
LC50 at 48 h [6, 24]: 1.29 µg/mL
LC50 at 72 h [6, 25]: 0.87 µg/mL
LC50 at 96 h [6, 26]: 0.66 µg/mL

CCOP(=S)(OCC)Oc1nc(Cl)c(Cl)cc1Cl [Chlorpyrifos, chlorpyrifos]
LC50 at 24 h [1]: 170 µg/mL (≈ 485 µM)
LC50 at 48 h [1]: 120 µg/mL (≈ 341 µM)
LC50 at 72 h [1]: 63.4 µg/mL (≈ 181 µM)
LC50 at 96 h [1]: 13 µg/mL (≈ 37.2 µM)
effects of exposure on zebrafish embryo development [2]: egg coagulation, pericardial edema, yolk sac edema, and spinal curvature
LC50 at 24 h [3]: 0.67 µg/mL (≈ 1.91 µM)
LC50 at 48 h [3]: 0.39 µg/mL (≈ 1.11 µM)
LC50 at 72 h [3]: 0.34 µg/mL (≈ 0.97 µM)
LC50 at 96 h [3]: 0.27 µg/mL (≈ 0.77 µM)
LC50 at 24 h [4]: 0.75 µg/mL (≈ 2.14 µM)
LC50 at 48 h [4]: 0.4 µg/mL (≈ 1.14 µM)
LC50 at 72 h [4]: 0.35 µg/mL (≈ 0.998 µM)
LC50 at 96 h [4]: 0.24 µg/mL (≈ 0.685 µM)
LC50 at 24 h ([5]; equitoxic ratio): 0.55 µg/mL
LC50 at 48 h ([5]; equitoxic ratio): 0.43 µg/mL
LC50 at 72 h ([5]; equitoxic ratio): 0.27 µg/mL
LC50 at 96 h ([5]; equitoxic ratio): 0.16 µg/mL
LC50 at 24 h ([5]; equivalent concentration (1:1)): 0.18 µg/mL
LC50 at 48 h ([5]; equivalent concentration (1:1)): 0.16 µg/mL
LC50 at 72 h ([5]; equivalent concentration (1:1)): 0.14 µg/mL
LC50 at 96 h ([5]; equivalent concentration (1:1)): 0.11 µg/mL
LC50 at 24 h [6, 7]: 0.8 µg/mL
LC50 at 96 h [6, 8]: 0.14 µg/mL
LC50 at 24 h [6, 9]: 1.53 µg/mL
LC50 at 48 h [6, 10]: 1.22 µg/mL
LC50 at 72 h [6, 11]: 0.93 µg/mL
LC50 at 96 h [6, 12]: 0.81 µg/mL
LC50 at 48 h [6, 13]: 0.61 µg/mL
LC50 at 72 h [6, 14]: 0.43 µg/mL
LC50 at 24 h [6, 15]: 0.57 µg/mL
LC50 at 48 h [6, 16]: 0.33 µg/mL
LC50 at 72 h [6, 17]: 0.28 µg/mL
LC50 at 96 h [6, 18]: 0.22 µg/mL
LC50 at 24 h [6, 19]: 1.52 µg/mL
LC50 at 48 h [6, 20]: 0.44 µg/mL
LC50 at 72 h [6, 21]: 0.28 µg/mL
LC50 at 96 h [6, 22]: 0.23 µg/mL
LC50 at 24 h [6, 23]: 2.23 µg/mL
LC50 at 48 h [6, 24]: 1.94 µg/mL
LC50 at 72 h [6, 25]: 1.31 µg/mL
LC50 at 96 h [6, 26]: 0.99 µg/mL
